# Earlier results, collected in paper PMC8764166, “Phenolic-Rich Plant Extracts With Antimicrobial Activity: An Alternative to Food Preservatives and Biocides?” (Frontiers in Microbiology, 2022).
# Columns and labels:
# [1] = system: biofilms with undesirable food spoiling or foodborne pathogenic microorganisms; parameters: method as in the references listed per substance; conditions: the references listed per substance
# DNA gyrase = system: DNA gyrase; parameters: method as in Plaper et al., 2003; conditions: ref Plaper et al., 2003
# Bacillus cereus = system: Bacillus cereus; parameters: method as in Serra et al. (2008); conditions: 20 mg·L^−1 quercetin, in grape extract or as solution; ref Serra et al. (2008)
# Salmonella typhimurium = conditions: ref Phadungkit and Luanratana, 2006
# Escherichia coli = conditions: ref Adamczak et al., 2020
# [2] = system: B. subtilis, E. coli, S. aureus, and S. typhimurium; parameters: method as in Dinesh Kumar et al., 2016; conditions: all test bacteria; ref Dinesh Kumar et al., 2016
smiles,measurement,setting,value
O=c1c(O)c(-c2ccc(O)c(O)c2)oc2cc(O)cc(O)c12 [Quercetin],activity against biofilms,[1],inhibit formation or to eradicate biofilms
same,DNA gyrase inhibition,DNA gyrase,– DNA gyrase inhibition either by interaction of quercetin with DNA or with ATP binding site of gyrase
same,growth of Bacillus cereus,Bacillus cereus,totally inhibited the growth of Bacillus cereus unlike a 20 mg·L^−1 quercetin solution
same,MIC against S. typhimurium,Salmonella typhimurium,S. typhimurium 15.6 mg·L^−1
same,MIC against E. coli,Escherichia coli,E. coli 0.5 g·L^−1
same,time after which antibacterial effect is lost,[2],2 to 9 h
